The NIST ThermoML archive (doi:10.1021/je200039y)
± gives the expanded uncertainty stated by the source.

Legend:
[1] = refractive index (Na D-line) (dimensionless); conditions: 298 K; 101.33 kPa; Liquid; Standard Abbe refractometry
[2] = Liquid
[3] = 350.3 K, Closed cell (Static) method
[4] = 343.15 K, Ebulliometric method (Recirculating still)
[5] = 350.43 K, Closed cell (Static) method

## Cc1ccccc1C [1,2-dimethylbenzene]
[1]
  refractive index: 1.5026 ± 0.0007

## CCCC [butane]
[2]; 350.36 K, Closed cell (Static) method
  vapor or sublimation pressure: 951.7 ± 4.1 kPa

## C/C=C/C [(E)-2-butene]
[2]; [3]
  vapor or sublimation pressure: 929.2 ± 4 kPa

## CCO [ethanol]
[2]; [4]
  vapor or sublimation pressure: 72.5 ± 0.6 kPa
[1]
  refractive index: 1.3593 ± 0.0007

## CSSC [2,3-dithiabutane]
[2]; 343.15 K, Closed cell (Static) method
  vapor or sublimation pressure: 27.8 ± 0.4 kPa
[2]; [3]
  vapor or sublimation pressure: 36.1 ± 0.8 kPa
[2]; 350.38 K, Closed cell (Static) method
  vapor or sublimation pressure: 36 ± 0.8 kPa
[2]; [5]
  vapor or sublimation pressure: 35.8 ± 0.8 kPa
[2]; 350.55 K, Closed cell (Static) method
  vapor or sublimation pressure: 36.1 ± 0.8 kPa
[1]
  refractive index: 1.5226 ± 0.0007

## C=C(C)C [2-methylpropene]
[2]; [5]
  vapor or sublimation pressure: 1154.3 ± 5 kPa

## CCOC(C)(C)C [2-ethoxy-2-methylpropane]
[2]; [4]
  vapor or sublimation pressure: 92.9 ± 0.7 kPa
[1]
  refractive index: 1.373 ± 0.0007

## CC(C)C [2-methylpropane]
[2]; 350.54 K, Closed cell (Static) method
  vapor or sublimation pressure: 1269.5 ± 5.5 kPa
